# Data: PubChem BioAssay (NCI)
#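 Here, GI50 denotes the concentration required for 50% inhibition of growth. Definition used: TGI = concentration required for complete inhibition of growth.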
# Experiments:
# Test in all cases: NCI-60 cell line screen, 384-well format
# [1] = test system: HOP-62 NSCLC
# [2] = test system: A549 NSCLC
# [3] = test system: NCI-H522 lung
# [4] = test system: PC-3 prostate
# [5] = test system: HOP-92 NSCLC
# [6] = test system: TK-10 renal
# [7] = test system: HL-60(TB) leukemia
# [8] = test system: SK-MEL-28 melanoma
# [9] = test system: OVCAR-5 ovarian
# [10] = test system: T-47D breast
# [11] = test system: DU-145 prostate
# [12] = test system: HT29 colon
# [13] = test system: SK-OV-3 ovarian
# [14] = test system: SF-539 CNS
# [15] = test system: MALME-3M melanoma
# [16] = test system: KM12 colon
# [17] = test system: MDA-MB-435 melanoma
# [18] = test system: NCI-H322M lung
# [19] = test system: OVCAR-4 ovarian
# [20] = test system: MDA-MB-468 breast
# [21] = test system: NCI-H460 NSCLC
# [22] = test system: RXF 393 renal
# [23] = test system: SK-MEL-5 melanoma
# [24] = test system: SNB-75 CNS
# [25] = test system: RPMI-8226 leukemia
# [26] = test system: MCF7 breast
# [27] = test system: 786-0 renal
# [28] = test system: CAKI-1 renal
# [29] = test system: HCT-116 colon
# [30] = test system: NCI-H226 lung
# [31] = test system: UACC-62 melanoma
# [32] = test system: EKVX NSCLC
# [33] = test system: SK-MEL-2 melanoma
# [34] = test system: MOLT-4 leukemia
# [35] = test system: HCT-15 colon
# [36] = test system: OVCAR-3 ovarian
# [37] = test system: SW-620 colon
# [38] = test system: IGROV1 ovarian
# [39] = test system: LOX IMVI melanoma
# [40] = test system: SR leukemia
# [41] = test system: HS 578T breast
# [42] = test system: BT-549 breast
# [43] = test system: SF-295 CNS
# [44] = test system: A498 renal
smiles,measurement,setting,value
Cc1nc2c(-c3cnc(N)nc3)nc(N3CCOCC3)nc2n1C(C)C,GI50,[1],0.158 µM
same,TGI,[1],13 µM
same,GI50,[2],0.108 µM
same,TGI,[2],3.6 µM
same,GI50,[3],0.0922 µM
same,TGI,[3],0.941 µM
same,GI50,[4],0.0528 µM
same,TGI,[4],> 100 µM
same,GI50,[5],0.0675 µM
same,TGI,[5],0.435 µM
same,GI50,[6],0.0549 µM
same,TGI,[6],0.465 µM
same,GI50,[7],0.156 µM
same,TGI,[7],1.04 µM
same,GI50,[8],0.153 µM
same,TGI,[8],0.969 µM
same,GI50,[9],0.19 µM
same,TGI,[9],> 100 µM
same,GI50,[10],0.0313 µM
same,TGI,[10],0.166 µM
same,GI50,[11],0.149 µM
same,TGI,[11],> 100 µM
same,GI50,[12],0.191 µM
same,TGI,[12],> 100 µM
same,GI50,[13],0.0927 µM
same,TGI,[13],0.43 µM
same,GI50,[14],0.167 µM
same,TGI,[14],1.12 µM
same,GI50,[15],0.0443 µM
same,TGI,[15],0.262 µM
same,GI50,[16],0.27 µM
same,TGI,[16],> 100 µM
same,GI50,[17],0.184 µM
same,TGI,[17],0.845 µM
same,GI50,[18],0.125 µM
same,TGI,[18],50.5 µM
same,GI50,[19],0.118 µM
same,TGI,[19],0.803 µM
same,GI50,[20],0.0659 µM
same,TGI,[20],0.351 µM
same,GI50,[21],0.039 µM
same,TGI,[21],> 100 µM
same,GI50,[22],0.0789 µM
same,TGI,[22],0.379 µM
same,GI50,[23],0.0878 µM
same,TGI,[23],0.337 µM
same,GI50,[24],0.0355 µM
same,TGI,[24],0.22 µM
same,GI50,[25],0.0596 µM
same,TGI,[25],0.252 µM
same,GI50,[26],0.036 µM
same,TGI,[26],> 100 µM
same,GI50,[27],0.246 µM
same,TGI,[27],5.94 µM
same,GI50,[28],0.0751 µM
same,TGI,[28],0.581 µM
same,GI50,[29],0.479 µM
same,TGI,[29],> 100 µM
same,GI50,[30],0.122 µM
same,TGI,[30],2.39 µM
same,GI50,[31],0.147 µM
same,TGI,[31],0.847 µM
same,GI50,[32],0.0866 µM
same,TGI,[32],0.38 µM
same,GI50,[33],0.566 µM
same,TGI,[33],0.941 µM
same,GI50,[34],0.0618 µM
same,TGI,[34],0.344 µM
same,GI50,[35],0.0761 µM
same,TGI,[35],> 100 µM
same,GI50,[36],0.107 µM
same,TGI,[36],0.713 µM
same,GI50,[37],0.46 µM
same,TGI,[37],> 100 µM
same,GI50,[38],0.0218 µM
same,TGI,[38],0.133 µM
same,GI50,[39],0.232 µM
same,TGI,[39],0.86 µM
same,GI50,[40],0.195 µM
same,TGI,[40],0.619 µM
same,GI50,[41],0.0661 µM
same,TGI,[41],0.273 µM
same,GI50,[42],0.0953 µM
same,TGI,[42],0.469 µM
same,GI50,[43],0.0791 µM
same,TGI,[43],0.431 µM
same,GI50,[44],0.0559 µM
same,TGI,[44],0.322 µM
